In PubChem BioAssay (NCI):
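Tested at 5 concentrations; 48 h exposure; 96-well plates; endpoints linearly interpolated, else capped at highest concentration. TGI denotes the concentration required for complete inhibition of growth.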

Experiments:
Test in all cases: NCI-60 cell line screen, 48 h
[1] = system: NCI-H226 lung
[2] = system: SNB-19 CNS
[3] = system: HCT-15 colon
[4] = system: SR leukemia
[5] = system: SF-539 CNS
[6] = system: HL-60(TB) leukemia
[7] = system: HOP-62 NSCLC
[8] = system: MALME-3M melanoma
[9] = system: 786-0 renal
[10] = system: MCF7 breast
[11] = system: UACC-62 melanoma
[12] = system: OVCAR-8 ovarian
[13] = system: SF-295 CNS
[14] = system: COLO 205 colon
[15] = system: HS 578T breast
[16] = system: OVCAR-5 ovarian
[17] = system: CCRF-CEM leukemia
[18] = system: HCC-2998 colon
[19] = system: NCI-H522 lung
[20] = system: SNB-75 CNS

SMILES	TGI [1]	TGI [2]	TGI [3]	TGI [4]	TGI [5]	TGI [6]	TGI [7]	TGI [8]	TGI [9]	TGI [10]	TGI [11]	TGI [12]	TGI [13]	TGI [14]	TGI [15]	TGI [16]	TGI [17]	TGI [18]	TGI [19]	TGI [20]
Cc1c(N2C(=O)/C(=C/c3ccc(N(CCC#N)CCC#N)cc3)N=C2c2ccccc2)c(=O)n(-c2ccccc2)n1C	> 100 µM	> 100 µM	> 100 µM	> 100 µM	> 100 µM	> 100 µM	> 100 µM	> 100 µM	> 100 µM	> 100 µM	> 100 µM	> 100 µM	> 100 µM	> 100 µM	> 100 µM	> 100 µM	> 100 µM	> 100 µM		
CCOC(=O)C(O)(C(=O)OCC)c1cc(C(C)(C)C)c(O)c(C(C)(C)C)c1	> 100 µM	74.6 µM	> 100 µM	> 100 µM	87.8 µM	98.2 µM	> 100 µM	> 100 µM	> 100 µM	> 100 µM	> 100 µM	> 100 µM	52.5 µM	90.1 µM	> 100 µM	> 100 µM	> 100 µM		> 100 µM	> 100 µM
CN(C)c1cccc2c1C(=O)C=CC21CCc2ccc(N(C)C)c3c(N(C)C)ccc1c23 (centres undefined)	33 µM	33.4 µM		56.5 µM	35.4 µM	27.3 µM	32.8 µM	24.4 µM	26.1 µM	27.3 µM	26.9 µM	53.2 µM	43.1 µM	29 µM	66.8 µM	49.6 µM	87.7 µM			19.2 µM
CC[C@H](C)C1=C(O)[N@+]2([O-])Oc3ccc(-c4c(O)c(O)c(-c5ccc(O)cc5)c(OC(C)=O)c4OC(C)=O)cc3O[C@]2([C@@H](C)CC)C(=O)N1O		> 50 µM	> 50 µM	> 50 µM	> 50 µM	> 50 µM	> 50 µM	> 50 µM	> 50 µM	> 50 µM	> 50 µM	> 50 µM	> 50 µM	> 50 µM	> 50 µM	> 50 µM			17.4 µM	
Cc1ccc(O)c(C2=CC(c3cccc(Br)c3)SC(N)=N2)c1 (centres undefined)	71.5 µM	32.4 µM	32.8 µM	49.7 µM	50.3 µM	75.1 µM	52 µM	78.9 µM	74.4 µM	> 100 µM	34.5 µM	> 100 µM	42.2 µM	34.6 µM	45 µM	92.5 µM	81.7 µM		37.7 µM	61.3 µM
COC(=O)[C@@H]1CC(C(CN)c2cn(C(=O)OC(C)(C)C)c3ccccc23)C(=O)N1C(=O)OC(C)(C)C (some centres undefined)	97.8 µM	> 100 µM	> 100 µM	43.3 µM	28.3 µM	59.2 µM	> 100 µM	54.1 µM	> 100 µM	58.5 µM	28.8 µM	55.8 µM	45.2 µM	32.8 µM	> 100 µM	84.2 µM	34.8 µM		95.8 µM	33.8 µM
CN1C(=O)CC2CCC(=O)N2c2cccnc21 (centres undefined)	> 100 µM	> 100 µM	> 100 µM	> 100 µM	> 100 µM	> 100 µM	> 100 µM	> 100 µM	> 100 µM	> 100 µM	> 100 µM	> 100 µM	> 100 µM	> 100 µM	> 100 µM		> 100 µM	> 100 µM	> 100 µM	
Cc1cccc(C)c1Nc1nc(C)c(C(=O)CC(=O)C(=O)Nc2c(C(C)C)cccc2C(C)C)s1	> 100 µM	> 100 µM	> 100 µM	> 100 µM	> 100 µM	> 100 µM	> 100 µM		> 100 µM	> 100 µM	> 100 µM	> 100 µM	> 100 µM	> 100 µM	> 100 µM	> 100 µM		> 100 µM	> 100 µM	
NC(Cc1ncccn1)C(=O)O (centres undefined)	> 100 µM	> 100 µM	> 100 µM	> 100 µM	> 100 µM		> 100 µM	> 100 µM	> 100 µM	> 100 µM	> 100 µM	> 100 µM	> 100 µM	> 100 µM	> 100 µM	> 100 µM	> 100 µM	> 100 µM	> 100 µM	> 100 µM
CCOC(=O)c1c(N2CCCC2)ncn(C)c1=S	> 100 µM	> 100 µM	> 100 µM	> 100 µM	> 100 µM	> 100 µM	> 100 µM	> 100 µM	> 100 µM	> 100 µM	> 100 µM	> 100 µM	> 100 µM	> 100 µM	> 100 µM	> 100 µM	> 100 µM	> 100 µM	> 100 µM	
C=CCOc1ccccc1C1(O)c2ccccc2C2=NCCCN21 (centres undefined)	76.4 µM	79.5 µM	> 100 µM	> 100 µM	39.5 µM	96.8 µM	54.1 µM		> 100 µM	> 100 µM	> 100 µM	34.6 µM	71.6 µM	78.9 µM	> 100 µM	> 100 µM	> 100 µM	30.3 µM		> 100 µM
